Laboratory results as given in publication PMC8815339 (The Biochemical journal, 2009).
Where two headings read alike, the source gives them in different places.

Key:
P. falciparum 3D7-luc = assay: Parasite growth inhibition, luciferase-expressing strain 3D7-luc; format: cell-based, Plasmodium falciparum; settings: for IC50: read-out: IC50s for 3D7 growth
[1] = molecular target: T1, recombinant PfPRMT1 (MBP-PfPRMT1) (Plasmodium falciparum, UniProt Q8ILK1); assay: Inhibition of recombinant PfPRMT1 methylation activity; format: biochemical; settings: chaetocin: in the lower micromolar concentration
T1 sequence (Q8ILK1 1-401): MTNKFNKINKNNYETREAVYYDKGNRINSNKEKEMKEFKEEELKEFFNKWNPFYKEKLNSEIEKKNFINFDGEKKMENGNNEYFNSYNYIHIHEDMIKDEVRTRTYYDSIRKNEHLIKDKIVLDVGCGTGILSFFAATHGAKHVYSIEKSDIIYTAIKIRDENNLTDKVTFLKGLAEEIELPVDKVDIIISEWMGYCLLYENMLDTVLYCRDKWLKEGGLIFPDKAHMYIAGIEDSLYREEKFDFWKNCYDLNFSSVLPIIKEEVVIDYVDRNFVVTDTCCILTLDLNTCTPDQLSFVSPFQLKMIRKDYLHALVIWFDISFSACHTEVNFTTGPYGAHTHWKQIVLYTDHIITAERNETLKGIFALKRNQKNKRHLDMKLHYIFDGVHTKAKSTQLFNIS

rat PRMT1 (rPRMT1) = settings: cited from earlier work
[2] = late ring-stage parasites, 48 h, 37°C, 2% parasitemia, 2% hematocrit
[3] = Plasmodium falciparum, 3D7, 48 h

Compound	Inhibition of PfPRMT1 (in words) [1]	IC50 (P. falciparum 3D7-luc; [3])	also measured
CSC[C@H]1O[C@@H](n2cnc3c(N)ncnc32)[C@H](O)[C@@H]1O [5-Deoxy-5-methylthioadenosine (MTA), 5-Deoxy-5-methylthioadenosine]	–	–	IC50 (P. falciparum 3D7-luc; [2]): > 100 µM
CN1C(=O)[C@@]23C[C@]4([C@]56C[C@@]78SS[C@@](CO)(C(=O)N7[C@H]5Nc5ccccc56)N(C)C8=O)c5ccccc5N[C@@H]4N2C(=O)[C@]1(CO)SS3 [Chaetocin]	no obvious inhibition	14 ± 1.56 µM	–
C[S+](CC[C@H](N)C(=O)[O-])C[C@H]1O[C@@H](n2cnc3c(N)ncnc32)[C@H](O)[C@@H]1O (stereo partly drawn) [AdoMet, S-adenosylmethionine]	–	–	Km (rat PRMT1 (rPRMT1); read-out: Km, rPRMT1, ref [31]): 2.52 ± 0.54 µM; kcat, rPRMT1 (rat PRMT1 (rPRMT1); ref [31]): 0.014 ± 0.0005 s⁻¹
Nc1ncnc2c1ncn2[C@@H]1O[C@H](C[C@@H](N)CC[C@H](N)C(=O)O)[C@@H](O)[C@H]1O [Sinefungin]	–	2.71 ± 0.04 µM	IC50s for 3D7 growth (P. falciparum 3D7-luc; [2]): lower micromolar
O=C1OC2(c3ccccc31)c1cc(Br)c(O)c(Br)c1Oc1c2cc(Br)c(O)c1Br [Eosin Y (AMI-5), Eosin Y]	strong inhibitory activity	14.8 ± 1.01 µM	–
